Data published in ChEMBL document CHEMBL3301361, “Experimental in vitro DMPK and physicochemical data on a set of publicly disclosed compounds”.
In brackets after ≈: the same amount, converted by molar mass.

Columns and labels:
[1] = physchem; settings: octan-1-ol/water, pH 7.4, LogD7.4
[2] = physchem; settings: pH 7.4 buffer
[3] = in vitro; settings: human
[4] = in vitro; settings: human, plasma

logD [1]	solubility thermodynamic [2] [µM]	microsomal CLint ([3]; liver microsomes) [µL/min/mg]	fraction unbound at 5 h [4]	fraction unbound at 5 h ([4]; PPB)	microsomal CLint ([3]; microsomes) [µL/min/mg]	Compound
3.1	4.4 (≈ 1.64 µg/mL)	18	–	–	–	Cc1ccc(F)c(Nc2ccnc(Nc3ccc(S(N)(=O)=O)cc3)n2)c1
–	–	5.5	0.0171	–	–	CCCCCOc1ccc(C(=O)NC(C(=O)O)C(C)C)cc1 (stereo unspecified)
–	–	–	–	0.0752	60.3	Cc1noc(C)c1-c1ccc(CNS(=O)(=O)c2c(C)noc2C)cc1
–	–	–	–	0.0568	< 3	CCc1ccc(OCC(=O)O)c(-c2ccc(S(C)(=O)=O)cc2)c1
–	–	< 3	–	0.0418	–	CCS(=O)(=O)c1ccc(-c2cc(C(F)(F)F)ccc2O[C@@H](C)C(=O)O)c(C)c1
3.4	324 (≈ 157 µg/mL)	112	–	–	–	COc1ccc(CC(=O)N(C)C2CCN(CCC(c3ccccc3)c3ccccc3)CC2)cc1OC
3.71	2.2 (≈ 0.998 µg/mL)	103	–	–	–	COc1ccc(OC)c(CNc2[nH]nc3cccc(Oc4ccc(S(C)(=O)=O)cc4)c23)c1
–	–	< 3	–	0.0428	–	CC(=O)Nc1cccc2c1c(S(=O)(=O)c1ccc(Cl)cc1)c(C)n2CC(=O)O
1.25	1260 (≈ 807 µg/mL)	–	–	–	7.5	CCN(C(=O)Cc1ccc(S(C)(=O)=O)cc1)C1CCN(CC[C@@H](c2cc(F)cc(F)c2)N2CCN(S(C)(=O)=O)CC2)CC1
3.08	219 (≈ 106 µg/mL)	16	–	–	–	COc1cccc(C(=O)Nc2ccc(C)c(-n3cnc4ccc(N5CCN(C)CC5)cc4c3=O)c2)c1
–	–	59	–	0.262	–	Nc1ccc2nc(SCC(=O)NC3CCN(Cc4ccc(Cl)c(Cl)c4)CC3)sc2c1
–	–	–	–	0.0581	> 150	CC(C)Oc1cc(-n2cnc3ccc(N[C@@H](C)c4ccc(F)cn4)nc32)n[nH]1
–	–	10	–	0.0171	–	Cc1ccc(S(=O)(=O)N(C)C(=O)N2CCC(N3CCC(Oc4ccc(Cl)c(Cl)c4)CC3)CC2)cc1
–	–	< 3	–	0.0307	–	O=C(NS(=O)(=O)c1ccccc1Cl)N1CCC(N2CCC(Oc3ccc(Cl)c(Cl)c3)CC2)CC1
–	–	< 3	–	0.0409	–	COc1ccccc1S(=O)(=O)NC(=O)N1CCC(N2CCC(Oc3ccc(Cl)c(Cl)c3)CC2)CC1
1.7	95.5 (≈ 39.4 µg/mL)	5.75	–	–	–	Cc1ccc2[nH]ccc2c1-c1nc(N2CCOCC2)cc(C2(S(C)(=O)=O)CC2)n1
–	–	5	–	0.117	–	C[C@H](CO)Nc1nc(SCc2ccco2)nc2nc(N)sc12
3.87	1 (≈ 0.487 µg/mL)	< 3	–	–	–	CCCSc1nc(N[C@@H]2C[C@H]2c2ccccc2)c2nnn([C@@H]3C[C@H](OCCO)[C@@H](O)[C@H]3O)c2n1
4.41	1 (≈ 0.361 µg/mL)	–	–	–	14	CC(C)Cn1c(=O)n(C)c(=O)c2cn(Cc3cccc4ccccc34)cc21
–	–	–	–	0.0544	66.1	CCOC(=O)Nc1cc2c(c(N)n1)N=C(c1ccccc1)CCN2
3.6	0.9 (≈ 0.362 µg/mL)	15	–	–	–	COc1cc2ncnc(Nc3ccc(OCc4ccccn4)c(C)c3)c2cc1OC
–	–	< 3	–	0.117	–	CCc1nc2c(N)nc3ccccc3c2n1CC(C)C
3.46	1.5 (≈ 0.637 µg/mL)	> 150	–	–	–	CN(CCOc1ccccc1-c1cc(C(N)=O)c(NC(N)=O)s1)Cc1ccccc1
–	–	34.7	–	0.22	–	Cc1cc(Nc2cncc(N[C@@H](C)c3ccc(F)cn3)n2)[nH]n1
–	–	15.8	–	0.0854	–	Cc1cc(Nc2cncc(N[C@@H](C)c3ncc(F)cn3)n2)n[nH]1
0.75	316 (≈ 92.4 µg/mL)	12	–	–	–	O=C(NO)c1ccc(NS(=O)(=O)c2ccccc2)cc1
2.74	18.6 (≈ 8.11 µg/mL)	3	–	–	–	O=c1ncn2nc(Sc3ccc(F)cc3F)ccc2c1-c1c(Cl)cccc1Cl [NEFLAMAPIMOD]
